Laboratory results: PubChem BioAssay (NCI)
Several values for one entry are separate records, joined by “and”; a condition that tells them apart may be missing. Equal entries are not always repeated.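 Results reflect a 48-hour exposure of cells in 96-well plates to compound at five concentrations. Here, GI50 denotes the concentration required for 50% inhibition of growth. TGI: total growth inhibition.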 Where a SMILES comes first, the peptide text is derived from it. [ ]: non-standard residue; d: D form. The star is where a group is joined. ξ: configuration not given here. NMeN = CN[C@@H](CC(N)=O)C(=O)O; NMeV = CN[C@H](C(=O)O)C(C)C; ξNMeV = CNC(C(=O)O)C(C)C; Boc = CC(C)(C)OC(=O)*; ξNMeA = CNC(C)C(=O)O

Key:
Test in all cases: growth of human tumour cells (NCI), 48 h
ACHN renal = system: ACHN renal
HCT-15 colon = system: HCT-15 colon
SR leukemia = system: SR leukemia
NCI-H460 lung = system: NCI-H460 lung
SF-295 CNS = system: SF-295 CNS
SN12C renal = system: SN12C renal
NCI-H522 lung = system: NCI-H522 lung
TK-10 renal = system: TK-10 renal
SK-MEL-5 melanoma = system: SK-MEL-5 melanoma
OVCAR-3 ovarian = system: OVCAR-3 ovarian

Row | SMILES | GI50 (ACHN renal) | TGI (ACHN renal) | GI50 (HCT-15 colon) | TGI (HCT-15 colon) | GI50 (SR leukemia) | TGI (SR leukemia) | GI50 (NCI-H460 lung) | TGI (NCI-H460 lung) | GI50 (SF-295 CNS) | TGI (SF-295 CNS) | GI50 (SN12C renal) | TGI (SN12C renal) | GI50 (NCI-H522 lung) | TGI (NCI-H522 lung) | GI50 (TK-10 renal) | TGI (TK-10 renal) | GI50 (SK-MEL-5 melanoma) | TGI (SK-MEL-5 melanoma) | GI50 (OVCAR-3 ovarian) | TGI (OVCAR-3 ovarian)
1 | O=CN1N=C(c2ccc(Cl)cc2)CC1c1cccc(Nc2ccnc3cc(Cl)ccc23)c1 (configuration not stated) | 2.64 µM | > 100 µM | 1.36 µM | > 100 µM | 0.404 µM | 3.76 µM | 1.86 µM | 11.9 µM | 0.504 µM | 9.75 µM | 3.99 µM | > 100 µM | 1.12 µM | 11.9 µM | 2.34 µM | 21.1 µM | 0.54 µM | 1.93 µM | 1.1 µM | 14.5 µM
2 | C=C1C(=O)[C@@]23CC1C(O)[C@@H](OC(C)=O)[C@@H]2C1(C)C(OC(C)=O)C[C@@H](OC(C)=O)C(C)(C)[C@@H]1C[C@H]3OC(C)=O (some centres not stated) | 4.26 µg/mL | > 10 µM and 16.6 µg/mL | 2.69 µg/mL | > 10 µM and 8.61 µg/mL | 1.7 µM and 0.255 µg/mL | 4.6 µM and 1.63 µg/mL | > 10 µM and 7.27 µg/mL | > 10 µM and 19.4 µg/mL | > 10 µM and 11.6 µg/mL | > 10 µM and 25.6 µg/mL | 5.5 µg/mL | > 10 µM and 17 µg/mL | 1.31 µM and 0.288 µg/mL | 2.64 µM and 1.44 µg/mL | > 10 µM and 2.29 µg/mL | > 10 µM and 5.15 µg/mL | 2.69 µM and 5.05 µg/mL | 9.01 µM and 16.5 µg/mL | > 10 µM and 3.93 µg/mL | > 10 µM and 8.34 µg/mL
3 | Cc1cc(I)cc(CN(C)CCN2CCCC2)c1O | 25.7 µM | > 84.4 µM | 24.4 µM | 73.7 µM | 1.79 µM | 5.84 µM | 28.3 µM | 85.4 µM | 13.1 µM | 36.6 µM | 41.3 µM | > 100 µM | 19.9 µM | 43.4 µM | 18.6 µM | 39.3 µM | 20.2 µM | 34.8 µM | 38.2 µM | > 100 µM
4 | O=C(Nc1ccc(F)cc1F)c1cc(Br)ccc1O | 2.5 µM | 8.4 µM | 3.04 µM | 17.3 µM | 3.05 µM | > 100 µM | 2.9 µM | > 100 µM | 1.9 µM | 3.76 µM | 2.26 µM | 9.26 µM | 2.83 µM | 39.9 µM | 4.83 µM | > 100 µM | 1.59 µM | 3.34 µM | 2.89 µM | > 100 µM
5 | COC(=O)C(C)N(C)C(=O)[C@H](CC(N)=O)N(C)C(=O)[C@@H]1CCCN1C(=O)[C@H](C(C)C)N(C)C(=O)C(C(C)C)N(C)C(=O)[C@@H](NC(=O)OC(C)(C)C)C(C)C (some centres not stated) (Boc-V[ξNMeV][NMeV]P[NMeN][ξNMeA]-OMe) | > 100 µM | > 100 µM |  | > 100 µM |  | > 100 µM | 17.9 µM | > 50 µM and 32.7 µM | > 100 µM | > 100 µM | > 100 µM | > 100 µM |  | > 50 µM | > 100 µM | > 100 µM | > 100 µM | 50 µM and > 100 µM | > 100 µM | > 100 µM
6 | Cc1occc1C(=S)Nc1ccc(Cl)c(/C=N/OC(C)C)c1 |  | 51 µM |  | 42.8 µM |  | > 59.9 µM |  | > 57.5 µM |  | 41.9 µM |  | 35.1 µM |  | 28.5 µM |  | 55.8 µM |  | 41.4 µM |  | 30.9 µM
